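Compound exposure: 48 hours, 5 concentrations, 96-well plates. TGI: total growth inhibition.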
Columns and labels:
Experiment in all cases: NCI tumour cell line growth inhibition, 48 h
786-0 renal = tested on: 786-0 renal
A498 renal = tested on: A498 renal
A549 NSCLC = tested on: A549 NSCLC
ACHN renal = tested on: ACHN renal
CAKI-1 renal = tested on: CAKI-1 renal
CCRF-CEM leukemia = tested on: CCRF-CEM leukemia
COLO 205 colon = tested on: COLO 205 colon
DU-145 prostate = tested on: DU-145 prostate
EKVX NSCLC = tested on: EKVX NSCLC
HCC-2998 colon = tested on: HCC-2998 colon
HCT-116 colon = tested on: HCT-116 colon
HCT-15 colon = tested on: HCT-15 colon
HL-60(TB) leukemia = tested on: HL-60(TB) leukemia
HOP-62 NSCLC = tested on: HOP-62 NSCLC
HOP-92 NSCLC = tested on: HOP-92 NSCLC
HS 578T breast = tested on: HS 578T breast
HT29 colon = tested on: HT29 colon
IGROV1 ovarian = tested on: IGROV1 ovarian
K-562 leukemia = tested on: K-562 leukemia
KM12 colon = tested on: KM12 colon
LOX IMVI melanoma = tested on: LOX IMVI melanoma
M14 melanoma = tested on: M14 melanoma
MALME-3M melanoma = tested on: MALME-3M melanoma
MCF7 breast = tested on: MCF7 breast
MDA-MB-435 = tested on: MDA-MB-435
MDA-N = tested on: MDA-N
MOLT-4 leukemia = tested on: MOLT-4 leukemia
NCI-H226 lung = tested on: NCI-H226 lung
NCI-H23 lung = tested on: NCI-H23 lung
NCI-H460 lung = tested on: NCI-H460 lung
NCI-H522 lung = tested on: NCI-H522 lung
NCI/ADR-RES ovarian = tested on: NCI/ADR-RES ovarian
OVCAR-3 ovarian = tested on: OVCAR-3 ovarian
OVCAR-4 ovarian = tested on: OVCAR-4 ovarian
OVCAR-5 ovarian = tested on: OVCAR-5 ovarian
OVCAR-8 ovarian = tested on: OVCAR-8 ovarian
PC-3 prostate = tested on: PC-3 prostate
RPMI-8226 leukemia = tested on: RPMI-8226 leukemia
RXF 393 renal = tested on: RXF 393 renal
SF-268 CNS = tested on: SF-268 CNS
SF-295 CNS = tested on: SF-295 CNS
SF-539 CNS = tested on: SF-539 CNS
SK-MEL-2 melanoma = tested on: SK-MEL-2 melanoma
SK-MEL-28 melanoma = tested on: SK-MEL-28 melanoma
SK-MEL-5 melanoma = tested on: SK-MEL-5 melanoma
SK-OV-3 ovarian = tested on: SK-OV-3 ovarian
SN12C renal = tested on: SN12C renal
SNB-19 CNS = tested on: SNB-19 CNS
SNB-75 CNS = tested on: SNB-75 CNS
SW-620 colon = tested on: SW-620 colon
T-47D breast = tested on: T-47D breast
TK-10 renal = tested on: TK-10 renal
U251 CNS = tested on: U251 CNS
UACC-257 melanoma = tested on: UACC-257 melanoma
UACC-62 melanoma = tested on: UACC-62 melanoma
UO-31 renal = tested on: UO-31 renal
BT-549 breast = tested on: BT-549 breast
MDA-MB-231 breast = tested on: MDA-MB-231 breast
SR leukemia = tested on: SR leukemia

C=C1C(=O)O[C@@H]2/C=C(C)/C=C\[C@@H]3O[C@@]3(C)C[C@@H](O)C12 (some centres not stated)
TGI (786-0 renal): 21.1 µM
TGI (A498 renal): 30.4 µM
TGI (A549 NSCLC): > 100 µM
TGI (ACHN renal): 18.3 µM
TGI (CAKI-1 renal): 21 µM
TGI (CCRF-CEM leukemia): 4.93 µM
TGI (COLO 205 colon): 21.1 µM
TGI (DU-145 prostate): 14.5 µM
TGI (EKVX NSCLC): 20.2 µM
TGI (HCC-2998 colon): 33.1 µM
TGI (HCT-116 colon): 20.6 µM
TGI (HCT-15 colon): 27.6 µM
TGI (HL-60(TB) leukemia): 8.93 µM
TGI (HOP-62 NSCLC): > 100 µM
TGI (HOP-92 NSCLC): 20.4 µM
TGI (HS 578T breast): > 100 µM
TGI (HT29 colon): 26.2 µM
TGI (IGROV1 ovarian): 28.6 µM
TGI (K-562 leukemia): 20.6 µM
TGI (KM12 colon): 31.8 µM
TGI (LOX IMVI melanoma): 22.2 µM
TGI (M14 melanoma): 49.2 µM
TGI (MALME-3M melanoma): 30.9 µM
TGI (MCF7 breast): 26.4 µM
TGI (MDA-MB-435): 39.6 µM
TGI (MDA-N): > 100 µM
TGI (MOLT-4 leukemia): 30.1 µM
TGI (NCI-H226 lung): 29.7 µM
TGI (NCI-H23 lung): 33.3 µM
TGI (NCI-H460 lung): 73.3 µM
TGI (NCI-H522 lung): 19.6 µM
TGI (NCI/ADR-RES ovarian): 33.4 µM
TGI (OVCAR-3 ovarian): 29.8 µM
TGI (OVCAR-4 ovarian): 38.2 µM
TGI (OVCAR-5 ovarian): 85.4 µM
TGI (OVCAR-8 ovarian): 55.1 µM
TGI (PC-3 prostate): 73.2 µM
TGI (RPMI-8226 leukemia): 18.7 µM
TGI (RXF 393 renal): 76.4 µM
TGI (SF-268 CNS): 84.7 µM
TGI (SF-295 CNS): > 100 µM
TGI (SF-539 CNS): 26 µM
TGI (SK-MEL-2 melanoma): > 100 µM
TGI (SK-MEL-28 melanoma): 35.8 µM
TGI (SK-MEL-5 melanoma): 29 µM
TGI (SK-OV-3 ovarian): > 100 µM
TGI (SN12C renal): 30.4 µM
TGI (SNB-19 CNS): 42.5 µM
TGI (SNB-75 CNS): > 100 µM
TGI (SW-620 colon): 17.2 µM
TGI (T-47D breast): 23.6 µM
TGI (TK-10 renal): 16.1 µM
TGI (U251 CNS): 34.6 µM
TGI (UACC-257 melanoma): 28.1 µM
TGI (UACC-62 melanoma): 27.2 µM
TGI (UO-31 renal): 30.1 µM

N#CSC#CCCC#CSC#N
TGI (786-0 renal): 40.4 µM
TGI (A498 renal): 37.7 µM
TGI (A549 NSCLC): 42 µM
TGI (ACHN renal): 31.4 µM
TGI (BT-549 breast): 47.7 µM
TGI (CAKI-1 renal): 33.7 µM
TGI (CCRF-CEM leukemia): > 100 µM
TGI (COLO 205 colon): 26.7 µM
TGI (DU-145 prostate): 28.3 µM
TGI (EKVX NSCLC): 41.5 µM
TGI (HCC-2998 colon): 34.3 µM
TGI (HCT-116 colon): 48.5 µM
TGI (HCT-15 colon): 34.8 µM
TGI (HL-60(TB) leukemia): > 100 µM
TGI (HOP-62 NSCLC): 33.7 µM
TGI (HOP-92 NSCLC): 39.5 µM
TGI (HS 578T breast): 76.2 µM
TGI (HT29 colon): 45.8 µM
TGI (IGROV1 ovarian): 45.1 µM
TGI (K-562 leukemia): > 100 µM
TGI (KM12 colon): 34.9 µM
TGI (LOX IMVI melanoma): 40.5 µM
TGI (M14 melanoma): 26.4 µM
TGI (MALME-3M melanoma): 34.3 µM
TGI (MCF7 breast): 48.2 µM
TGI (MDA-MB-231 breast): 42 µM
TGI (MDA-MB-435): 56.2 µM
TGI (MDA-N): 34.8 µM
TGI (MOLT-4 leukemia): 6.92 µM
TGI (NCI-H226 lung): 58.2 µM
TGI (NCI-H23 lung): 42.1 µM
TGI (NCI-H460 lung): 48.4 µM
TGI (NCI-H522 lung): 13.6 µM
TGI (NCI/ADR-RES ovarian): 74.9 µM
TGI (OVCAR-3 ovarian): 51.8 µM
TGI (OVCAR-4 ovarian): 58.5 µM
TGI (OVCAR-5 ovarian): 40.3 µM
TGI (OVCAR-8 ovarian): 60.7 µM
TGI (PC-3 prostate): 48.3 µM
TGI (RXF 393 renal): 35.7 µM
TGI (SF-268 CNS): > 100 µM
TGI (SF-295 CNS): 32.7 µM
TGI (SF-539 CNS): 41.2 µM
TGI (SK-MEL-2 melanoma): 43.1 µM
TGI (SK-MEL-28 melanoma): 82 µM
TGI (SK-MEL-5 melanoma): 34.8 µM
TGI (SK-OV-3 ovarian): 29.7 µM
TGI (SN12C renal): 31.9 µM
TGI (SNB-19 CNS): 29 µM
TGI (SR leukemia): > 100 µM
TGI (SW-620 colon): 38.7 µM
TGI (TK-10 renal): 33.1 µM
TGI (U251 CNS): 30.5 µM
TGI (UACC-257 melanoma): 32.2 µM
TGI (UACC-62 melanoma): 31.8 µM
TGI (UO-31 renal): 33.5 µM

From PubChem BioAssay (NCI)
